Source: US9428500B2, “Alpha-carbolines for the treatment of cancer” (UNIVERSITA' DEGLI STUDI DI MILANO—BICOCCA, priority 2012, dated 2016)
Like-named read-outs stand apart in the source and are kept apart here.

Tests used:
[1] = molecular target: wild-type ALK kinase (rALK) (Homo sapiens (Human), UniProt Q9UM73); experiment: ELISA-based in vitro kinase assay, wild-type ALK; format: biochemical; settings: recombinant ALK, 0.3 mM ATP; read-out: ELISA ALK WT IC50
Protocol: Recombinant 3C protease was used to remove the GST tag. Purified ALK was used to screen inhibitors in the ELISA-based kinase assay, as follows: Nunc-Immuno 96-well plates were incubated overnight at 30° C. with coating solution containing 2 μg of a specific ALK peptide substrate ([…]) in PBS. Wells were then washed with 200 μL of wash buffer (PBS-Tween 0.05%) and incubated with 4% BSA in PBS for at least 2 h at 30° C. […] For inhibitor testing the reaction mix was preincubated with inhibitor or vehicle for 10 min at room temperature before transferring to the ELISA plate. After the reaction, the wells were washed 5 times with 200 uL of wash buffer. Phosphorylated peptide was detected using 100 μL/well of a mouse monoclonal anti-phosphotyrosine antibody (clone 4G10 UpstateBiotech Ltd) diluted 1:2000 in PBS+4% BSA. After 30 min incubation at room temperature the antibody was removed and wells were washed as described above. 100 μL of a secondary antibody (anti-mouse IgG, Horseradish Peroxidase linked whole antibody, Amersham Pharmacia Biotech) diluted 1:1000 in PBS+4% BSA was added to each well and the plate was incubated again for 30 min at room temperature before washing as above. The plate was developed using 100 μL/well TMB Substrate Solution (Pierce) and the reaction was stopped by adding an equal volume of 1M H2SO4. Finally, the absorbance was read at 450 nm using an ELISA plate reader (Bio-Rad).

[2] = test system: parental untransformed BaF3 cells; experiment: Tritiated thymidine uptake cell proliferation assay, parental BaF3; format: cell-based; settings: Mus musculus, BaF3; 3H-thymidine uptake, 72 h, medium with IL-3
[3] = test system: BaF3 cells transformed with the oncogenic fusion protein NPM/ALK
[4] = test system: BaF3 cells transformed with the oncogenic fusion protein NPM/ALK; experiment: cells; settings: read-out: BaF3 NPM/ALK WT IC50

Chain of wild-type ALK kinase (rALK) (Q9UM73 19-1620): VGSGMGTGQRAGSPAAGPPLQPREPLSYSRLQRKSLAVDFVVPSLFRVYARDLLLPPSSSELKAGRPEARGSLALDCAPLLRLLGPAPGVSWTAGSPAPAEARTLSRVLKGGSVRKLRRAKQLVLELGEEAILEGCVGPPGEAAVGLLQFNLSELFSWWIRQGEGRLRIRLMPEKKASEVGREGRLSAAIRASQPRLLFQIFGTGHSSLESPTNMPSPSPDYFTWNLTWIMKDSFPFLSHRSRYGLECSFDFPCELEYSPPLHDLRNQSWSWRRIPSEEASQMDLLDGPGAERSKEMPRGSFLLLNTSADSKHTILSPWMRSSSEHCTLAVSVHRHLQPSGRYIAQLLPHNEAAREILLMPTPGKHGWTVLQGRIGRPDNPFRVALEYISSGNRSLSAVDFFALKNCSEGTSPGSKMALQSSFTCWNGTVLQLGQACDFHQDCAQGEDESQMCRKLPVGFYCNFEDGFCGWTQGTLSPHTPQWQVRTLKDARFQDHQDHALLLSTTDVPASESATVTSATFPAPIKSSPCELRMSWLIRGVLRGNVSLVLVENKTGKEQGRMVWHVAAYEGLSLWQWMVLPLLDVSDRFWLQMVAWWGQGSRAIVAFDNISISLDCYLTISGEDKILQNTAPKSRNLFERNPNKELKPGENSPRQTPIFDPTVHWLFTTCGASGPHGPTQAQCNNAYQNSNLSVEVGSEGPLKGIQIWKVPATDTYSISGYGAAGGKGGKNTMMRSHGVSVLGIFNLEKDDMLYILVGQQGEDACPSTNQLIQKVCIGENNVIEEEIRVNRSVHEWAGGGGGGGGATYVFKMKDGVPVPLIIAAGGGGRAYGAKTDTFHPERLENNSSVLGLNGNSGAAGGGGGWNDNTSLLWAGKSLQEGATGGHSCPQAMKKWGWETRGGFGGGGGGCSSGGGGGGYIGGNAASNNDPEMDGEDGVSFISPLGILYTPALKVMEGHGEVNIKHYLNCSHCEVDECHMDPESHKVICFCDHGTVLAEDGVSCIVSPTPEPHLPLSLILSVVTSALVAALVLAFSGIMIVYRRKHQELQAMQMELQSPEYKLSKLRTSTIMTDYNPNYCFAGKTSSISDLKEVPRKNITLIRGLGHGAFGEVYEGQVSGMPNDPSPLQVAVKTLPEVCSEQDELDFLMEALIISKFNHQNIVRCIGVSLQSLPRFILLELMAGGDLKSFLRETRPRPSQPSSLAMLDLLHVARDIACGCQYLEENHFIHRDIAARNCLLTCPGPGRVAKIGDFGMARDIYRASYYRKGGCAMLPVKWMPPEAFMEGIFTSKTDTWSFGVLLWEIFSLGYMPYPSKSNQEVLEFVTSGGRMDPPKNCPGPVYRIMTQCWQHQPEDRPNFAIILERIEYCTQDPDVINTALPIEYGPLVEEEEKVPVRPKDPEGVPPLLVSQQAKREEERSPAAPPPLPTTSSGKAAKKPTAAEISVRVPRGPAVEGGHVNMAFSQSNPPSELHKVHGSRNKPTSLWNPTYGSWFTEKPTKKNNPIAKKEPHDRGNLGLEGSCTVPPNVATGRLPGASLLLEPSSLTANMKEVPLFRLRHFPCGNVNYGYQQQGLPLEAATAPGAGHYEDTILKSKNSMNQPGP

CN1CCN(c2ccc(-c3ccc4[nH]c5nccc(-c6ccc(N7CCN(C)CC7)cc6)c5c4c3)cc2)CC1 [Example 20, 4,6-Bis-[4-(4-methylpiperazin-1-yl)-phenyl]-9H-pyrido[2,3-b]indole]
IC50 [1]: 10 µM
IC50 [2]: 3.6 µM
Selectivity Index (WT) [3]: 7
IC50 [4]: 0.52 µM

C/C(=C\c1ccccc1)c1ccnc2[nH]c3ccc(-c4ccc(N5CCN(C)CC5)cc4)cc3c12 [Example 28, (E)-6-(4-(4-methylpiperazin-1-yl)phenyl)-4-(1-phenylprop-1-en-2-yl)-9H-pyrido[2,3-b]indole]
IC50 [2]: 0.8 µM

CN1CCN(c2ccc(-c3ccc4[nH]c5nccc(/C=C/c6ccccc6NS(C)(=O)=O)c5c4c3)cc2)CC1 [Example 29, N-[(E)-2-(2-{6-[4-(4-Methylpiperazin-1-yl)-phenyl]-9H-pyrido[2,3-b]indol-4-yl}-vinyl)-phenyl]-methanesulfonamide]
IC50 [2]: 0.68 µM

CC/C=C(\c1ccccc1)c1ccnc2[nH]c3ccc(-c4ccc(N5CCN(C)CC5)cc4)cc3c12 [Example 30, (E)-6-[4-(4-Methylpiperazin-1-yl)-phenyl]-4-(1-phenyl-but-1-enyl)-9H-pyrido[2,3-b]indole]
IC50 [2]: 0.22 µM

CC(C)[Si](C=Cc1ccnc2[nH]c3ccc(-c4ccc(N5CCN(C)CC5)cc4)cc3c12)(C(C)C)C(C)C [Example 32, (E) and (Z)-6-(4-(4-methylpiperazin-1-yl)phenyl)-4-(2-(triisopropylsilyl)vinyl)-9H-pyrido[2,3-b]indole]
IC50 [2]: 6.9 µM

CN1CCN(c2ccc(-c3ccc4[nH]c5nccc(-c6ccc(C(O)c7ccccc7)cc6)c5c4c3)cc2)CC1 (stereo not drawn) [Example 33, (4-{6-[4-(4-Methylpiperazin-1-yl)-phenyl]-9H-pyrido[2,3-b]indol-4-yl}-phenyl)-phenyl-methanol]
IC50 [2]: 1 µM

CN1CCN(c2ccc(-c3ccc4[nH]c5nccc(Nc6ccccc6[N+](=O)[O-])c5c4c3)cc2)CC1 [Example 34, {6-[4-(4-Methylpiperazin-1-yl)-phenyl]-9H-pyrido[2,3-b]indol-4-yl}-(2-nitro-phenyl)-amine]
IC50 [2]: 0.86 µM

CN1CCN(c2ccc(-c3ccc4[nH]c5nccc(Nc6cccc([N+](=O)[O-])c6)c5c4c3)cc2)CC1 [Example 35, 6-(4-(4-Methylpiperazin-1-yl)phenyl)-N-(3-nitrophenyl)-9H-pyrido[2,3-b]indol-4-amine]
IC50 [2]: 0.48 µM

CN1CCC(N2CCN(c3ccc(-c4ccc5[nH]c6nccc(Nc7ccccc7[N+](=O)[O-])c6c5c4)cc3)CC2)CC1 [Example 36, 6-(4-(4-(1-Methylpiperidin-4-yl)piperazin-1-yl)phenyl)-N-(2-nitrophenyl)-9H-pyrido[2,3-b]indol-4-amine]
IC50 [2]: 7.1 µM

CN1CCN(c2ccc(-c3ccc4[nH]c5nccc(C#Cc6ccccc6)c5c4c3)cc2)CC1 [Example 37, 6-[4-(4-Methylpiperazin-1-yl)-phenyl]-4-phenylethynyl-9H-pyrido[2,3-b]indole]
IC50 [2]: 4.4 µM

COc1ccccc1C#Cc1ccnc2[nH]c3ccc(-c4ccc(N5CCN(C)CC5)cc4)cc3c12 [Example 38, 4-(2-Methoxyphenylethynyl)-6-[4-(4-methylpiperazin-1-yl)-phenyl]-9H-pyrido[2,3-b]indole]
IC50 [2]: 1.5 µM

CN1CCN(c2ccc(-c3ccc4[nH]c5nccc(C#Cc6ccccc6C(F)(F)F)c5c4c3)cc2)CC1 [Example 39, 6-[4-(4-Methylpiperazin-1-yl)-phenyl]-4-(2-trifluoromethyl-phenylethynyl)-9H-pyrido[2,3-b]indole]
IC50 [2]: 1.2 µM

CN1CCN(c2ccc(-c3ccc4[nH]c5nccc(C#Cc6ccc(F)cc6)c5c4c3)cc2)CC1 [Example 40, 4-((4-Fluorophenyl)ethynyl)-6-[4-(4-methylpiperazin-1-yl)-phenyl]-9H-pyrido[2,3-b]indole]
IC50 [2]: 0.92 µM

CN1CCN(c2ccc(-c3ccc4[nH]c5nccc(C#Cc6ccccc6F)c5c4c3)cc2)CC1 [Example 41, 4-((2-Fluorophenyl)ethynyl)-6-[4-(4-methylpiperazin-1-yl)-phenyl]-9H-pyrido[2,3-b]indole]
IC50 [2]: 2.5 µM

CN1CCN(c2ccc(-c3ccc4[nH]c5nccc(C#Cc6ccccc6Cl)c5c4c3)cc2)CC1 [Example 42, 4-((2-Chlorophenyl)ethynyl)-6-[4-(4-methylpiperazin-1-yl)-phenyl]-9H-pyrido[2,3-b]indole]
IC50 [2]: 2.1 µM

CC(C)[Si](C#Cc1ccnc2[nH]c3ccc(-c4ccc(N5CCN(C)CC5)cc4)cc3c12)(C(C)C)C(C)C [Example 43, 6-(4-(4-Methylpiperazin-1-yl)phenyl)-4-((triisopropylsilyl)ethynyl)-9H-pyrido[2,3-b]indole]
IC50 [2]: 3.4 µM

C#Cc1ccnc2[nH]c3ccc(-c4ccc(N5CCN(C)CC5)cc4)cc3c12 [Example 44, 4-Ethynyl-6-(4-(4-methylpiperazin-1-yl)phenyl)-9H-pyrido[2,3-b]indole]
IC50 [1]: 29 µM
IC50 [2]: 0.35 µM
Selectivity Index (WT) [3]: 2
IC50 [4]: 0.17 µM

COc1ccccc1C#Cc1ccnc2c1c1cc(-c3ccc(N4CCN(C)CC4)cc3)ccc1n2C [Example 45, 4-(2-Methoxyphenylethynyl)-9-methyl-6-[4-(4-methylpiperazin-1-yl)-phenyl]-9H-pyrido[2,3-b]indole]
IC50 [1]: 3.8 µM
IC50 [2]: 2.1 µM
Selectivity Index (WT) ([3]; BaF3 parental vs NPM/ALK WT): 2
IC50 [4]: 1.1 µM

COc1ccc(Sc2ccnc3[nH]c4ccc(-c5ccc(N6CCN(C)CC6)cc5)cc4c23)cc1 [Example 46, 4-(4-Methoxy-phenylsulfanyl)-6-[4-(4-methyl-piperazin-1-yl)-phenyl]-9H-pyrido[2,3-b]indole]
IC50 [1]: 5.7 µM

Cc1ccc(Cn2cc(-c3ccnc4[nH]c5ccc(-c6ccc(N7CCN(C)CC7)cc6)cc5c34)nn2)cc1 [Example 47, 4-(1-(4-methylbenzyl)-1H-1,2,3-triazol-4-yl)-6-(4-(4-methylpiperazin-1-yl)phenyl)-9H-pyrido[2,3-b]indole]
IC50 [1]: 6.8 µM

CN1CCN(c2ccc(-c3ccc4[nH]c5nccc(-c6ccc(Oc7ccccc7)cc6)c5c4c3)cc2)CC1 [Example 48, 6-(4-(4-methylpiperazin-1-yl)phenyl)-4-(4-phenoxyphenyl)-9H-pyrido[2,3-b]indole]
IC50 [2]: 2.1 µM

CN1CCN(c2ccc(-c3ccc4[nH]c5nccc(-c6ccc(-c7ccc(F)cc7)nc6)c5c4c3)cc2)CC1 [Example 49, 4-(6-(4-fluorophenyl)pyridin-3-yl)-6-(4-(4-methylpiperazin-1-yl)phenyl)-9H-pyrido[2,3-b]indole]
IC50 [2]: 3.2 µM

COc1cc(-c2ccnc3[nH]c4ccc(-c5ccc(N6CCN(C)CC6)cc5)cc4c23)c(OC)cc1C(=O)c1ccccc1 [Example 50, (2,5-dimethoxy-4-(6-(4-(4-methylpiperazin-1-yl)phenyl)-9H-pyrido[2,3-b]indol-4-yl)phenyl)(phenyl)methanone]
IC50 [2]: 1.1 µM

COc1cc(C(=O)c2ccccc2)c(O)cc1-c1ccnc2[nH]c3ccc(-c4ccc(N5CCN(C)CC5)cc4)cc3c12 [Example 51, (2-hydroxy-5-methoxy-4-(6-(4-(4-methylpiperazin-1-yl)phenyl)-9H-pyrido[2,3-b]indol-4-yl)phenyl)(phenyl)methanone]
IC50 [2]: 0.72 µM

COc1cc(-c2ccnc3[nH]c4ccc(-c5ccc(N6CCN(C)CC6)cc5)cc4c23)c(OC)cc1Cc1ccccc1 [Example 52, 4-(4-benzyl-2,5-dimethoxyphenyl)-6-(4-(4-methylpiperazin-1-yl)phenyl)-9H-pyrido[2,3-b]indole]
IC50 [2]: 0.81 µM

COc1cc(Cc2ccccc2)c(O)cc1-c1ccnc2[nH]c3ccc(-c4ccc(N5CCN(C)CC5)cc4)cc3c12 [Example 53, 2-benzyl-4-methoxy-5-(6-(4-(4-methylpiperazin-1-yl)phenyl)-9H-pyrido[2,3-b]indol-4-yl)phenol]
IC50 [2]: 1.8 µM

CN1CCN(c2ccc(-c3ccc4[nH]c5nccc(-c6ccc(Cc7ccccc7)cc6C(F)(F)F)c5c4c3)cc2)CC1 [Example 55, 4-(4-benzyl-2-(trifluoromethyl)phenyl)-6-(4-(4-methylpiperazin-1-yl)phenyl)-9H-pyrido[2,3-b]indole]
IC50 [2]: 5.1 µM

COc1cc(C(O)c2ccccc2)c(OC)cc1-c1ccnc2[nH]c3ccc(-c4ccc(N5CCN(C)CC5)cc4)cc3c12 (stereo not drawn) [Example 57, (2,5-dimethoxy-4-(6-(4-(4-methylpiperazin-1-yl)phenyl)-9H-pyrido[2,3-b]indol-4-yl)phenyl)(phenyl)methanol]
IC50 [2]: 0.79 µM

CN1CCN(c2ccc(-c3ccc4[nH]c5nccc(N6CCC(Cc7ccccc7)CC6)c5c4c3)cc2)CC1 [Example 58, 4-(4-benzylpiperidin-1-yl)-6-(4-(4-methylpiperazin-1-yl)phenyl)-9H-pyrido[2,3-b]indole]
IC50 [2]: 3.3 µM

CN1CCN(c2ccc(-c3ccc4[nH]c5nccc(N6CCN(Cc7ccccc7)CC6)c5c4c3)cc2)CC1 [Example 59, 4-(4-benzylpiperazin-1-yl)-6-(4-(4-methylpiperazin-1-yl)phenyl)-9H-pyrido[2,3-b]indole]
IC50 [2]: 0.83 µM
